Data as given in the NIST ThermoML archive (doi:10.1021/acs.jced.6b00542).
Numbers after ± are expanded uncertainties.

Assay: xn = mol fraction of the nth substance listed
Details: for speed of sound: 100 kPa, Frequency=3 MHz, Sing-around technique in a fixed-path interferometer; for speed of sound / viscosity / mass density: Liquid; for viscosity / mass density: 102 kPa; for viscosity: Concentric cylinders viscometry; for mass density: Vibrating tube method; for surface tension liquid-gas: 294.5 K, Pendant drop shape

CCCCc1ccccc1 [butylbenzene] + CCCCCCCCCC
Details	mass density [kg/m3]	speed of sound [m/s]	viscosity [mPa·s]
293.15 K, x1 = 0.1055	740.9 ± 0.17	1259.2 ± 1	0.917 ± 0.007
293.15 K, x1 = 0.2096	752.3 ± 0.16	1266.3 ± 1	0.917 ± 0.007
293.15 K, x1 = 0.3124	764.12 ± 0.15	1273.8 ± 1	0.921 ± 0.007
293.15 K, x1 = 0.4141	776.38 ± 0.15	1282.1 ± 0.9	0.928 ± 0.007
293.15 K, x1 = 0.5145	789.08 ± 0.14	1291.3 ± 1.1	0.94 ± 0.007
293.15 K, x1 = 0.614	802.32 ± 0.13	1301.1 ± 0.9	0.957 ± 0.007
293.15 K, x1 = 0.712	816.03 ± 0.13	1312.2 ± 0.9	0.981 ± 0.007
293.15 K, x1 = 0.8094	830.38 ± 0.12	1324.5 ± 1.1	1 ± 0.01
293.15 K, x1 = 0.9051	845.04 ± 0.12	1338.2 ± 0.9	1.03 ± 0.01
293.15 K, x1 = 1	860.51 ± 0.11	1353.7 ± 0.9	1.05 ± 0.01
303.15 K, x1 = 0.1055	733.32 ± 0.17	1220.2 ± 1	0.792 ± 0.007
303.15 K, x1 = 0.2096	744.67 ± 0.16	1227.4 ± 1	0.794 ± 0.007
303.15 K, x1 = 0.3124	756.43 ± 0.16	1235 ± 0.9	0.798 ± 0.007
303.15 K, x1 = 0.4141	768.66 ± 0.15	1243.5 ± 0.9	0.805 ± 0.007
303.15 K, x1 = 0.5145	781.31 ± 0.14	1252.5 ± 0.9	0.816 ± 0.007
303.15 K, x1 = 0.614	794.51 ± 0.14	1262.6 ± 0.9	0.83 ± 0.007
303.15 K, x1 = 0.712	808.16 ± 0.13	1273.7 ± 0.9	0.849 ± 0.007
303.15 K, x1 = 0.8094	822.46 ± 0.12	1286 ± 1.1	0.866 ± 0.007
303.15 K, x1 = 0.9051	837.07 ± 0.12	1299.4 ± 0.9	0.891 ± 0.007
303.15 K, x1 = 1	852.49 ± 0.11	1314.9 ± 0.9	0.91 ± 0.007
313.15 K, x1 = 0.1055	725.64 ± 0.17	1181.5 ± 1	0.693 ± 0.006
313.15 K, x1 = 0.2096	736.97 ± 0.16	1188.9 ± 1	0.696 ± 0.006
313.15 K, x1 = 0.3124	748.7 ± 0.16	1196.6 ± 0.9	0.7 ± 0.006
313.15 K, x1 = 0.4141	760.89 ± 0.15	1205.2 ± 0.9	0.707 ± 0.006
313.15 K, x1 = 0.5145	773.5 ± 0.14	1214.3 ± 0.9	0.716 ± 0.006
313.15 K, x1 = 0.614	786.65 ± 0.14	1224.4 ± 0.9	0.727 ± 0.006
313.15 K, x1 = 0.712	800.26 ± 0.13	1235.6 ± 0.9	0.743 ± 0.006
313.15 K, x1 = 0.8094	814.51 ± 0.13	1247.9 ± 1	0.76 ± 0.006
313.15 K, x1 = 0.9051	829.07 ± 0.12	1261.2 ± 0.9	0.781 ± 0.006
313.15 K, x1 = 1	844.43 ± 0.11	1276.6 ± 0.9	0.801 ± 0.006
323.15 K, x1 = 0.1055	–	1143.3 ± 1	0.616 ± 0.006
323.15 K, x1 = 0.2096	–	1150.8 ± 1	0.619 ± 0.006
323.15 K, x1 = 0.3124	–	1158.7 ± 0.9	0.624 ± 0.006
323.15 K, x1 = 0.4141	–	1167.3 ± 0.9	0.63 ± 0.006
323.15 K, x1 = 0.5145	–	1176.6 ± 0.9	0.639 ± 0.006
323.15 K, x1 = 0.614	–	1186.7 ± 0.9	0.649 ± 0.006
323.15 K, x1 = 0.712	–	1197.9 ± 0.9	0.661 ± 0.006
323.15 K, x1 = 0.8094	–	1210.2 ± 1	0.677 ± 0.006
323.15 K, x1 = 0.9051	–	1223.5 ± 0.8	0.695 ± 0.006
323.15 K, x1 = 1	–	1238.7 ± 0.8	0.713 ± 0.006

Details	surface tension liquid-gas [mN/m]
x1 = 0.1055	23.9 ± 0.3
x1 = 0.2096	24.3 ± 0.4
x1 = 0.3124	24.6 ± 0.4
x1 = 0.4141	24.9 ± 0.4
x1 = 0.5145	25.4 ± 0.4
x1 = 0.614	25.8 ± 0.4
x1 = 0.712	26.5 ± 0.4
x1 = 0.8094	26.7 ± 0.4
x1 = 0.9051	27.9 ± 0.4
